Drawing on the supplement of paper PMC10307832, this text covers relative viability for eight cell lines.

Test in all cases: relative viability (nuclei count vs DMSO), 5 days (fraction); higher = more cells survive
Compound in the assay “Carfilzomib + Lapatinib”: CC(C)C[C@H](NC(=O)[C@H](CCc1ccccc1)NC(=O)CN1CCOCC1)C(=O)N[C@@H](Cc1ccccc1)C(=O)N[C@@H](CC(C)C)C(=O)[C@@]1(C)CO1 [Carfilzomib] + CS(=O)(=O)CCNCc1ccc(-c2ccc3ncnc(Nc4ccc(OCc5cccc(F)c5)c(Cl)c4)c3c2)o1 [Lapatinib] (partner 2 µM)
Put shortly:
(§1)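 Values are medians from duplicate plates. Each reflects relative viability, defined as the nuclei count of treated wells over that of vehicle wells. Lung cancer cell lines in 1536-well plates were pin-tool dosed one day after seeding with one drug alone or with a fixed anchor-drug dose plus five library-drug doses (not always all listed) in √10 steps, then fixed, stained and imaged at 4× after 5 days.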

Compound in the assay “Carfilzomib + Alpelisib”: CC(C)C[C@H](NC(=O)[C@H](CCc1ccccc1)NC(=O)CN1CCOCC1)C(=O)N[C@@H](Cc1ccccc1)C(=O)N[C@@H](CC(C)C)C(=O)[C@@]1(C)CO1 [Carfilzomib] + Cc1nc(NC(=O)N2CCC[C@H]2C(N)=O)sc1-c1ccnc(C(C)(C)C(F)(F)F)c1 [Alpelisib] (partner 2 µM)
Put shortly:
as §1

Compound in the assay “Olaparib + Phenformin”: O=C(c1cc(Cc2n[nH]c(=O)c3ccccc23)ccc1F)N1CCN(C(=O)C2CC2)CC1 [Olaparib] + N=C(N)NC(=N)NCCc1ccccc1 [Phenformin] (partner 250 µM)
Put shortly: as §1

Compound in the assay “Crizotinib + Tozasertib”: C[C@@H](Oc1cc(-c2cnn(C3CCNCC3)c2)cnc1N)c1c(Cl)ccc(F)c1Cl [Crizotinib] + Cc1cc(Nc2cc(N3CCN(C)CC3)nc(Sc3ccc(NC(=O)C4CC4)cc3)n2)n[nH]1 [Tozasertib] (partner 0.1 µM)
The procedure, abridged: as §1

With LCLC-97TM1, the relative viability in the assay with Carfilzomib + Lapatinib (first compound 0.001 µM) came out at 0.73; with Carfilzomib + Lapatinib (first compound 0.003162 µM), 1.58; in the assay with Carfilzomib + Lapatinib (first compound 0.01 µM), 0.957; with Carfilzomib + Lapatinib (first compound 0.03162 µM), 0.282; in the assay with Carfilzomib + Lapatinib (first compound 0.1 µM), 0.142; with Carfilzomib + Alpelisib (first compound 0.001 µM), 0.307. The relative viability was found to be 0.258 in the assay with Carfilzomib + Alpelisib (first compound 0.003162 µM); 0.266 in the assay with Carfilzomib + Alpelisib (first compound 0.01 µM); 0.101 with Carfilzomib + Alpelisib (first compound 0.03162 µM); 0.126 with Carfilzomib + Alpelisib (first compound 0.1 µM); 0.439 with Olaparib + Phenformin (first compound 0.08 µM); 0.414 with Olaparib + Phenformin (first compound 0.253 µM). Besides, the relative viability in the assay with Olaparib + Phenformin (first compound 2.53 µM) was 0.428; with Olaparib + Phenformin (first compound 8 µM) it was 0.429; in the assay with Crizotinib + Tozasertib (first compound 0.01 µM) it was 0.19; in the assay with Crizotinib + Tozasertib (first compound 0.03162 µM) it was 0.234; with Crizotinib + Tozasertib (first compound 0.1 µM), 0.21; with Crizotinib + Tozasertib (first compound 0.3162 µM), 0.201. The relative viability with Crizotinib + Tozasertib (first compound 1 µM) worked out at 0.224.

With LK-2, the relative viability was found to be 0.673 with Carfilzomib + Lapatinib (first compound 0.001 µM); 1.19 in the assay with Carfilzomib + Lapatinib (first compound 0.003162 µM); 0.72 with Carfilzomib + Lapatinib (first compound 0.01 µM); 0.226 with Carfilzomib + Lapatinib (first compound 0.03162 µM); 0.217 with Carfilzomib + Lapatinib (first compound 0.1 µM); 1.59 with Carfilzomib + Alpelisib (first compound 0.003162 µM). For the same cell line, the relative viability with Carfilzomib + Alpelisib (first compound 0.01 µM) stood at 1.1; with Carfilzomib + Alpelisib (first compound 0.03162 µM) it was 0.263; with Carfilzomib + Alpelisib (first compound 0.1 µM) it was 0.255; with Olaparib + Phenformin (first compound 0.08 µM), 0.661; in the assay with Olaparib + Phenformin (first compound 0.253 µM), 0.381; with Olaparib + Phenformin (first compound 2.53 µM) it was 0.77. Besides, the relative viability with Olaparib + Phenformin (first compound 8 µM) came to 0.317; with Crizotinib + Tozasertib (first compound 0.01 µM) it was 0.173; with Crizotinib + Tozasertib (first compound 0.03162 µM) it was 0.177; with Crizotinib + Tozasertib (first compound 0.1 µM), 0.197; with Crizotinib + Tozasertib (first compound 1 µM), 0.19.

On to LOU-NH91, for which the relative viability in the assay with Carfilzomib + Lapatinib (first compound 0.001 µM) came out at 0.767; with Carfilzomib + Lapatinib (first compound 0.003162 µM) it was 0.783; with Carfilzomib + Lapatinib (first compound 0.01 µM), 0.607; with Carfilzomib + Lapatinib (first compound 0.03162 µM) it was 0.309; with Carfilzomib + Lapatinib (first compound 0.1 µM), 0.288; in the assay with Carfilzomib + Alpelisib (first compound 0.001 µM), 0.702. In addition, the relative viability was found to be 0.742 with Carfilzomib + Alpelisib (first compound 0.003162 µM); 0.662 with Carfilzomib + Alpelisib (first compound 0.01 µM); 0.307 with Carfilzomib + Alpelisib (first compound 0.03162 µM); 0.267 with Carfilzomib + Alpelisib (first compound 0.1 µM); 0.885 with Olaparib + Phenformin (first compound 0.08 µM); 0.663 with Olaparib + Phenformin (first compound 0.253 µM). The relative viability with Olaparib + Phenformin (first compound 2.53 µM) was found to be 0.716; in the assay with Olaparib + Phenformin (first compound 8 µM), 0.769; with Crizotinib + Tozasertib (first compound 0.01 µM), 0.674; with Crizotinib + Tozasertib (first compound 0.03162 µM) it was 0.69; in the assay with Crizotinib + Tozasertib (first compound 0.1 µM) it was 0.751; with Crizotinib + Tozasertib (first compound 0.3162 µM) it was 0.606. Also, in the assay with Crizotinib + Tozasertib (first compound 1 µM), the relative viability stood at 0.677.

LU99A: the relative viability with Carfilzomib + Lapatinib (first compound 0.001 µM) came to 1; in the assay with Carfilzomib + Lapatinib (first compound 0.003162 µM) it was 1.03; with Carfilzomib + Lapatinib (first compound 0.01 µM), 0.972; with Carfilzomib + Lapatinib (first compound 0.03162 µM) it was 0.521; in the assay with Carfilzomib + Lapatinib (first compound 0.1 µM) it was 0.2; in the assay with Carfilzomib + Alpelisib (first compound 0.001 µM), 0.503. For the same cell line, the relative viability in the assay with Carfilzomib + Alpelisib (first compound 0.003162 µM) amounted to 0.543; with Carfilzomib + Alpelisib (first compound 0.01 µM), 0.49; with Carfilzomib + Alpelisib (first compound 0.03162 µM), 0.198; with Carfilzomib + Alpelisib (first compound 0.1 µM), 0.148; in the assay with Olaparib + Phenformin (first compound 0.08 µM), 0.853; with Olaparib + Phenformin (first compound 0.253 µM), 0.777. Also, the relative viability in the assay with Olaparib + Phenformin (first compound 2.53 µM) amounted to 0.666; in the assay with Olaparib + Phenformin (first compound 8 µM), 0.556; with Crizotinib + Tozasertib (first compound 0.01 µM) it was 0.231; with Crizotinib + Tozasertib (first compound 0.03162 µM), 0.27; with Crizotinib + Tozasertib (first compound 0.1 µM) it was 0.256; with Crizotinib + Tozasertib (first compound 0.3162 µM), 0.222. In the assay with Crizotinib + Tozasertib (first compound 1 µM), the relative viability amounted to 0.241.

As for LXF-289, the relative viability with Carfilzomib + Lapatinib (first compound 0.001 µM) was found to be 0.921; in the assay with Carfilzomib + Lapatinib (first compound 0.003162 µM) it was 0.942; in the assay with Carfilzomib + Lapatinib (first compound 0.01 µM) it was 0.917; with Carfilzomib + Lapatinib (first compound 0.03162 µM), 0.0958; with Carfilzomib + Lapatinib (first compound 0.1 µM), 0.101; in the assay with Carfilzomib + Alpelisib (first compound 0.001 µM) it was 1.06. The relative viability amounted to 1.07 with Carfilzomib + Alpelisib (first compound 0.003162 µM); 0.979 in the assay with Carfilzomib + Alpelisib (first compound 0.01 µM); 0.0883 in the assay with Carfilzomib + Alpelisib (first compound 0.03162 µM); 0.0581 with Carfilzomib + Alpelisib (first compound 0.1 µM); 0.555 in the assay with Olaparib + Phenformin (first compound 0.08 µM); 0.477 with Olaparib + Phenformin (first compound 0.253 µM). Further, the relative viability was found to be 0.547 in the assay with Olaparib + Phenformin (first compound 2.53 µM); 0.526 in the assay with Olaparib + Phenformin (first compound 8 µM); 0.221 with Crizotinib + Tozasertib (first compound 0.01 µM); 0.201 in the assay with Crizotinib + Tozasertib (first compound 0.03162 µM); 0.18 with Crizotinib + Tozasertib (first compound 0.1 µM); 0.157 in the assay with Crizotinib + Tozasertib (first compound 0.3162 µM). In the assay with Crizotinib + Tozasertib (first compound 1 µM), the relative viability is 0.197.

For the cell line NCI-H23, the relative viability amounted to 1.01 with Carfilzomib + Lapatinib (first compound 0.001 µM); 1.09 with Carfilzomib + Lapatinib (first compound 0.003162 µM); 0.723 with Carfilzomib + Lapatinib (first compound 0.01 µM); 0.171 in the assay with Carfilzomib + Lapatinib (first compound 0.03162 µM); 0.142 in the assay with Carfilzomib + Lapatinib (first compound 0.1 µM); 0.741 with Carfilzomib + Alpelisib (first compound 0.001 µM). Further, the relative viability worked out at 0.84 with Carfilzomib + Alpelisib (first compound 0.003162 µM); 0.857 with Carfilzomib + Alpelisib (first compound 0.01 µM); 0.207 with Carfilzomib + Alpelisib (first compound 0.03162 µM); 0.112 in the assay with Carfilzomib + Alpelisib (first compound 0.1 µM); 0.841 with Olaparib + Phenformin (first compound 0.08 µM); 0.714 in the assay with Olaparib + Phenformin (first compound 0.253 µM). The relative viability in the assay with Olaparib + Phenformin (first compound 2.53 µM) was found to be 0.724; in the assay with Olaparib + Phenformin (first compound 8 µM) it was 0.609; with Crizotinib + Tozasertib (first compound 0.01 µM), 0.414; with Crizotinib + Tozasertib (first compound 0.03162 µM), 0.36; in the assay with Crizotinib + Tozasertib (first compound 0.1 µM), 0.307; with Crizotinib + Tozasertib (first compound 1 µM), 0.363.

For the cell line NCI-H322M, the relative viability with Carfilzomib + Lapatinib (first compound 0.001 µM) amounted to 0.477; with Carfilzomib + Lapatinib (first compound 0.003162 µM), 0.641; with Carfilzomib + Lapatinib (first compound 0.01 µM) it was 0.611; with Carfilzomib + Lapatinib (first compound 0.03162 µM), 0.651; with Carfilzomib + Lapatinib (first compound 0.1 µM), 0.4; in the assay with Carfilzomib + Alpelisib (first compound 0.001 µM), 0.796. Moreover, the relative viability with Carfilzomib + Alpelisib (first compound 0.003162 µM) was found to be 0.757; with Carfilzomib + Alpelisib (first compound 0.01 µM), 0.365; with Carfilzomib + Alpelisib (first compound 0.03162 µM), 0.748; with Carfilzomib + Alpelisib (first compound 0.1 µM) it was 0.509; in the assay with Olaparib + Phenformin (first compound 0.08 µM), 0.937; with Olaparib + Phenformin (first compound 0.253 µM), 0.815. The relative viability with Olaparib + Phenformin (first compound 2.53 µM) stood at 0.81; with Olaparib + Phenformin (first compound 8 µM), 0.635; with Crizotinib + Tozasertib (first compound 0.01 µM) it was 0.482; with Crizotinib + Tozasertib (first compound 0.03162 µM), 0.515; in the assay with Crizotinib + Tozasertib (first compound 0.1 µM) it was 0.48; in the assay with Crizotinib + Tozasertib (first compound 0.3162 µM), 0.49. Also, in the assay with Crizotinib + Tozasertib (first compound 1 µM), the relative viability is 0.459.

With NCI-H358, the relative viability with Carfilzomib + Lapatinib (first compound 0.001 µM) was 0.377; in the assay with Carfilzomib + Lapatinib (first compound 0.003162 µM) it was 0.53; with Carfilzomib + Lapatinib (first compound 0.01 µM) it was 0.404; in the assay with Carfilzomib + Lapatinib (first compound 0.03162 µM) it was 0.177; with Carfilzomib + Lapatinib (first compound 0.1 µM), 0.139; with Carfilzomib + Alpelisib (first compound 0.001 µM), 1.21. Moreover, the relative viability in the assay with Carfilzomib + Alpelisib (first compound 0.003162 µM) was 1.19; with Carfilzomib + Alpelisib (first compound 0.01 µM), 0.85; with Carfilzomib + Alpelisib (first compound 0.03162 µM), 0.153; with Carfilzomib + Alpelisib (first compound 0.1 µM) it was 0.13; with Olaparib + Phenformin (first compound 0.08 µM) it was 0.396; with Olaparib + Phenformin (first compound 0.253 µM), 0.325. The relative viability turned out to be 0.351 with Olaparib + Phenformin (first compound 2.53 µM); 0.327 with Olaparib + Phenformin (first compound 8 µM); 0.0979 in the assay with Crizotinib + Tozasertib (first compound 0.01 µM); 0.105 in the assay with Crizotinib + Tozasertib (first compound 0.03162 µM); 0.118 with Crizotinib + Tozasertib (first compound 0.1 µM); 0.0922 in the assay with Crizotinib + Tozasertib (first compound 0.3162 µM). For the same cell line, the relative viability in the assay with Crizotinib + Tozasertib (first compound 1 µM) amounted to 0.0946.
